Several values for one entry are separate records, joined by “and”; a condition that tells them apart may be missing. Equal values may be shown once. Read-outs that look alike come from different tables or passages of the source. Values belong to the compound of their own block, whether it stands above or below them.
Tests used:
[1] = Buccal bilayer tablet, double-blind placebo-controlled crossover: blood glucose, plasma insulin and glucagon; assay type: in vivo, human (healthy volunteers)
From the text: (§1) This example describes a double-blind, placebo-controlled, crossover comparison with random assignment to treatment sequence. […] Inclusion criteria for the volunteers were normal glucose tolerance, weight within 22<BMI<26, informed consent to participate in the study, and age between 20 and 60 years. Exclusion criteria were impaired glucose tolerance (2-hour glucose tolerance test; OGTT), gastrointestinal symptoms, ongoing medication or illness, acute infection, abnormal laboratory variables (hemoglobin, hematocrit, leucocytes, creatinine, bilirubin, calcium, potassium, sodium, alkaline phosphatase, gamma-GT, SGOT, SGPT, cholesterol, and triglycerides), and blood pressure greater than 185 mmHg systolic and/or 90 mmHg diastolic.
Subject numbers were allotted to the subjects in the order in which they were enrolled in the study. The number allotted to each subject determined the treatment sequence received. Subjects receiving treatment sequence 1 were treated with drug followed by placebo, and subjects receiving treatment sequence 2 were treated with placebo followed by drug.
(§2) Subjects were instructed to fast the night before a treatment. At the clinic, the subjects were given either a drug-containing bilayer tablet or placebo. At time 0 the bilayer tablet was applied to the gingiva with the active layer in contact with the tissue of the lip or inside of the cheek, and the subjects were placed in a rest position. The bilayer tablet was removed after 4.5 hours. No meals were allowed until a standard meal was given after 4.5 hours, and snacks were not permitted at any time. The standard meal contained 550 kcal, with 28%, 22%, and 50% of the energy from protein, fat, and carbohydrate, respectively. The test continued until 8 hours after application of the bilayer tablet, and the subjects left the hospital after 9 hours. The subjects were given their medications in the clinic by a nurse and were under observation at all times. Any symptoms or sensations disturbing or impairing the subjects' wellbeing during the experiments was carefully documented. Standard safety variables were determined under fasting conditions before each experiment. Blood glucose was monitored frequently and glucose infusion was available in case of hypoglycemia (<2.5 mmol/L). If any subject were to experience hypoglycemic symptoms, an extra blood glucose determination would be taken for safety reasons A washout period of 1-4 days was allowed between each experiment The study was completed within 6 weeks after enrollment of the first volunteer.
(§3) The peptide content of bilayer tablet samples was also analyzed by HPLC. […] Results were tested for normal distribution. A two-tailed t-test was carried out for normally distributed samples, and a Wilcoxon rank-sum test was used for data that were not normally distributed. All statistical tests used a level of significance of 0.05.

[2] = Plasma GLP-1(7-36)amide pharmacokinetics after buccal bilayer tablet; assay type: in vivo, human (healthy volunteers)
From the text: as §1, §2, §3
This was done in comparison to published data.
The data summarized in FIG. 5 were analyzed by AUC to provide an estimate of relative bioavailability by buccal administration as compared to subcutaneous administration.

[3] = in vivo; cited from earlier work
[4] = bile salts; cited from earlier work
[5] = colon of a baboon, cited from earlier work
[6] = Subcutaneous GLP-1 in fasting subjects (study by M. A. Nauck, FIG. 6), regression analysis; assay type: in vivo, human (fasting subjects)
From the text: This could be due to changes in bioavailability with dose, changes in clearance with dose, or a combination of both effects.

[7] = intravenous infusion, fasting individuals; cited from earlier work
[8] = Buccal delivery of salmon calcitonin in dogs; assay type: in vivo, dog (mongrel dogs); parameters: AUC infinity, buccal / AUC infinity, iv: concentration or dose not given beside the values
Protocol: (§4) Bilayer tablets prepared according to Examples 13-15 were tested in in vivo experiments to determine their effectiveness in delivering peptide X systemically to dogs. Mongrel dogs each weighing 30-35 kg were conditioned for one month prior to use. The dogs were mildly sedated with acepromazine, but were awake for the duration of each experiment. Tablets were attached to the gingiva with the active layer contacting and in drug transfer relationship to the buccal mucosa of the upper lip. Nylon muzzles were used to prevent the animals from licking the tablets. In this model, normal salivary functions were preserved and no irrigation was required. The saphenous vein was catheterized to permit venous blood sampling. Blood samples were collected into citrate "[…]" tubes and immediately chilled on ice for 15 minutes and then centrifuged for 10 minutes at 3400 rpm. The resultant supernatant plasma was then collected and stored in capped polypropylene tubes at -70° C. until analyzed for peptide X content.
The procedure of Example 16 was followed with the exception that salmon calcitonin was substituted for peptide X, and tablet sizes and numbers were varied in some experiments.

[9] = Buccal delivery of insulin in dogs: blood glucose; assay type: in vivo, dog (mongrel dogs); details: 5 U/kg
Protocol: as §4
The procedure of Example 16 was followed with insulin-containing tablets prepared according to Example 6. The results shown in FIG. 8 are the average of 4 dogs, each given one 0.375 inch diameter buccal tablet containing 5 U/kg of drug. […] Beginning about 60 minutes after application, the blood glucose levels start to rise again, reaching normal levels about 120 minutes after application.

[10] = buccal bilayer tablet, 400 μg, FIG. 3
[11] = buccal bilayer tablet, 400 μg, FIG. 4
[12] = buccal bilayer tablet, 400 μg, fasting, FIG. 2
[13] = buccal bilayer tablet, 400 μg, FIG. 5
[14] = individual subjects 901-908 and mean, buccal, dose 119 nmol
[15] = average of 4 dogs, one 0.375 inch buccal tablet, FIG. 8

Compound: GLP-1(7-36)amide: gastrointestinal hormone processed from the preproglucagon gene; the naturally occurring form in humans
Plasma glucagon level at its low compared to placebo ([1]; about 30 minutes, buccal bilayer tablet, 400 μg, FIG. 4): significantly lower than the placebo group | Plasma glucagon level at its peak compared to placebo ([1]; after the low, buccal bilayer tablet, 400 μg, FIG. 4): significantly higher than the placebo group | Start of rise of plasma insulin level [1, 10]: 10 min | Time of decline of plasma insulin to normal [1, 10]: about 50 minutes | Time of peak plasma insulin level [1, 10]: about 20 minutes | Time from which plasma glucagon tracks the placebo group [1, 11]: about 150 minutes | Time of low of plasma glucagon level [1, 11]: about 30 minutes | Time of peak of plasma glucagon level [1, 11]: 60 to 75 min | Blood glucose levels compared to placebo controls ([1]; buccal bilayer tablet, 400 μg, fasting): significantly reduced blood glucose levels as compared to placebo controls | Lowest blood glucose level [1, 12]: about 3 mmol/L | Time by which blood glucose drops below that of the placebo group [1, 12]: ≤ 20 min | Time of lowest blood glucose level [1, 12]: about 50 minutes | Time of return of blood glucose to a normal level [1, 12]: about 90 minutes | Blood glucose levels of the two groups after the meal ([1]; drug vs placebo, after standard meal at 4.5 hours): indistinguishable after the meal | Plasma insulin level at 15 minutes after administration ([1]; relative to normal, buccal bilayer tablet, 400 μg, FIG. 3): about three time normal | Plasma GLP-1(7-36)amide level after the meal compared to placebo ([2]; after standard meal at 4.5 hours): approximately the same as that of the placebo group | Absorption through the buccal mucosa into the bloodstream ([2]; buccal bilayer tablet, 400 μg): rapid absorption through the buccal mucosa into the bloodstream | Start of rise of plasma GLP-1(7-36)amide level [2, 13]: ≤ 5 min | Time from which plasma GLP-1(7-36)amide tracks the placebo group [2, 13]: about 150 minutes | Time of peak plasma GLP-1(7-36)amide level [2, 13]: about 30 minutes | Time until which plasma GLP-1(7-36)amide declines rapidly [2, 13]: about 90 minutes | AUC [2, 14]: 11343 pmol·min/L and 3278 pmol·min/L and 8024 pmol·min/L and 9113 pmol·min/L and 7250 pmol·min/L and 8753 pmol·min/L and 8410 pmol·min/L | Bioavailability [2, 14]: 10.01% and 2.89% and 7.08% and 6.40% and 7.72% and 7.42% | Dose (second Dose column) [2, 14]: 11.91 nmol and 3.44 nmol and 9.57 nmol and 7.61 nmol and 9.19 nmol and 8.83 nmol | Effect on glucose-induced insulin release [3]: potentiates glucose-induced insulin release

Compound: C[C@H](CCC(=O)O)[C@H]1CC[C@H]2[C@@H]3[C@H](O)C[C@@H]4C[C@H](O)CC[C@]4(C)[C@H]3CC[C@]12C [chenodeoxycholate]
Order of effectiveness in enhancing nasal absorption of insulin [4]: deoxycholate≤chenodeoxycholate≤cholate≤ursodeoxychola te

Compound: heparin
Activity with bile salts in the formulation ([5]; with sodium cholate or deoxycholate): significant activity is detected | Transmucosal intestinal delivery (partial thromboplastin time prolongation or plasma lipase release) ([5]; without bile salt): not apparent

Compound: C[C@H](CCC(=O)O)[C@H]1CC[C@H]2[C@@H]3[C@@H](O)C[C@@H]4C[C@H](O)CC[C@]4(C)[C@H]3CC[C@]12C [ursodeoxychola te]
Order of effectiveness in enhancing nasal absorption of insulin [4]: deoxycholate≤chenodeoxycholate≤cholate≤ursodeoxychola te

Bioavailability by subcutaneous administration relative to intravenous administration ([6]; fasting subjects): 38% | Clearance ([6]; subcutaneous, regression analysis of all the results): about 40 ml/min/kg
Compound: GLP-1
Clearance [7]: ~15 mL/min/kg

Compound: C[C@H](CCC(=O)O)[C@H]1CC[C@H]2[C@@H]3[C@H](O)C[C@@H]4C[C@H](O)CC[C@]4(C)[C@H]3C[C@H](O)[C@]12C [cholate]
Order of effectiveness in enhancing nasal absorption of insulin [4]: deoxycholate≤chenodeoxycholate≤cholate≤ursodeoxychola te

AUC infinity, buccal ([8]; individual dogs (Dog ID#), 2 tablets, first figure of "buc/iv"): 139 and 66 and 84 and 26 and 64 and 38 | AUC infinity, iv ([8]; individual dogs (Dog ID#), second figure of "buc/iv"): 76 and 159 and 106 and 87
Compound: Salmon Calcitonin
Buccal delivery into the bloodstream ([8]; bilayer tablet): delivered into the bloodstream of a warm-blooded animal by buccal delivery | ng Absorbed ([8]; individual dogs (Dog ID#), 2 buccal tablets, 1.27 or 0.71 cm^2): 72,958 ng and 16,461 ng and 20,989 ng and 6,535 ng and 23,379 ng and 17,614 ng

Compound: insulin: insulin-containing tablets prepared according to Example 6 (human insulin)
Start of rise of blood glucose [9, 15]: about 60 minutes | Start of sharp drop of blood glucose [9, 15]: about 15 minutes | Time of low level of blood glucose [9, 15]: about 40 minutes | Time of return of blood glucose to normal levels [9, 15]: about 120 minutes | Control of blood glucose levels ([9]; buccal delivery): effective in controlling blood glucose levels

From patent US5849322A, “Compositions and methods for buccal delivery of pharmaceutical agents” (Theratech, Inc., priority 1995, dated 1998)
